Values joined by “and” are separate entries in the source; they are usually repeats but may differ in a detail not shown here. Identical values can stand only once.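 Grown in 96-well plates, cells were treated for 48 hours with each compound at five concentrations. Insufficient inhibition: endpoint recorded as highest concentration tested. GI50 marks 50% less growth. TGI denotes the concentration required for complete inhibition of growth.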
How the values were obtained:
Test in all cases: DTP human tumour cell line panel, 48 h
ACHN renal = tested on: ACHN renal
MALME-3M melanoma = tested on: MALME-3M melanoma
CCRF-CEM leukemia = tested on: CCRF-CEM leukemia
UACC-257 melanoma = tested on: UACC-257 melanoma
HOP-62 NSCLC = tested on: HOP-62 NSCLC
HCC-2998 colon = tested on: HCC-2998 colon
COLO 205 colon = tested on: COLO 205 colon
UACC-62 melanoma = tested on: UACC-62 melanoma
HS 578T breast = tested on: HS 578T breast
DU-145 prostate = tested on: DU-145 prostate

Row | Compound | TGI (ACHN renal) | TGI (MALME-3M melanoma) | TGI (CCRF-CEM leukemia) [µM] | TGI (UACC-257 melanoma) | TGI (HOP-62 NSCLC) [µM] | TGI (HCC-2998 colon) [µM] | TGI (COLO 205 colon) | TGI (UACC-62 melanoma) | GI50 (ACHN renal) [µM] | GI50 (UACC-62 melanoma) [µM] | GI50 (CCRF-CEM leukemia) [µM] | GI50 (HS 578T breast) [µM] | TGI (HS 578T breast) [µM] | GI50 (DU-145 prostate) [µM] | TGI (DU-145 prostate) [µM] | GI50 (HOP-62 NSCLC) [µM] | GI50 (HCC-2998 colon) [µM] | GI50 (COLO 205 colon) [µM] | GI50 (MALME-3M melanoma) [µM] | GI50 (UACC-257 melanoma) [µM]
1 | Cc1ccc2c(c1)-c1c3c(nn1-c1ccccc1)-c1ccccc1SC3O2 (configuration not stated) | > 100 µM | > 100 µM | > 100 | > 100 µM | > 100 | > 100 | > 100 µM |  |  |  |  |  |  |  |  |  |  |  |  | 
2 | COc1cc2c[n+](C)c3c4cc(OC)c(OC(C)C)cc4ccc3c2cc1OC | > 100 µM | > 100 µM | > 100 | > 100 µM | > 100 | > 100 | 31.2 µM | > 100 µM |  |  |  |  |  |  |  |  |  |  |  | 
3 | COc1ccc2c(CN3CCCC[C@H]3C(=O)O)cc3cc4c(cc3c2c1)OCO4 | 2.43 µM |  | 13.5 |  | > 100 | > 100 | 2.88 µM | 2.34 µM | 0.46 | 1.02 | 2.94 | 1.53 | 4.4 | 5.72 | 24.7 | 4.33 | 3.56 | 0.494 |  | 
4 | C[C@H](OCc1ccccc1)C(=O)N1CCS(=O)(=O)N2CCC[C@@H]2C1=O | > 100 µM | > 100 µM | > 100 | > 100 µM | > 100 | > 100 | > 100 µM | > 100 µM |  |  |  |  |  |  |  |  |  |  |  | 
5 | Cc1ccccc1C1OC(=O)c2ccc3ccccc3c21 (configuration not stated) | 28.6 µM | 14 µM | 17.6 | 12.2 µM | 5.35 | 12 | 2.28 µM | 6.97 µM |  |  |  |  |  |  |  |  |  |  |  | 
6 | COC(C(=O)NN)c1ccccc1 (configuration not stated) | > 100 µM | > 100 µM |  | > 100 µM | > 100 | > 100 |  | > 100 µM |  |  |  |  | > 100 |  | > 100 |  |  |  |  | 
7 | C/C(O)=C(/C=N/C(=S)Nc1ccc(S(N)(=O)=O)cc1)C(=O)Nc1ccccc1C | > 100 µM |  | 65.9 | > 100 µM | > 100 | > 100 | > 100 µM | > 100 µM |  |  |  |  | > 100 |  | > 100 |  |  |  |  | 
8 | C=Cc1cncc(C#N)c1CCc1c(C#N)cncc1C=C | > 100 µM | > 100 µM | > 100 | > 100 µM | > 100 | > 100 | > 10 µM | > 100 µM | > 100 | > 100 | > 100 |  |  |  |  | > 100 | > 100 |  | > 100 | > 100
9 | COc1ccc(CCN2CC=Cn3c2nc2ccccc2c3=O)cc1 | > 49.2 µM |  | > 100 | > 100 µM | > 64 | 35.5 | 0.0847 µM | > 100 µM | 0.0919 | 0.232 | 0.03 | 0.0329 | 77.4 | 0.0374 | > 23.3 | 0.0346 | 0.0332 | 0.0267 |  | 20.5
10 | C=C/C=C/NC(=O)OCc1ccccc1 | > 100 µM |  | > 100 | > 100 µM | > 100 |  | > 100 µM | > 100 µM |  |  |  |  |  |  |  |  |  |  |  | 
11 | CCCCOC(=O)N1CCN(/[N+]([O-])=N/Oc2ccc([N+](=O)[O-])cc2[N+](=O)[O-])CC1 | 7.19 µM |  |  | 29 µM | 23.2 |  | 5.99 µM | 26.8 µM | 2.53 | 13.6 |  | 20.9 | > 100 | 3.35 | 12 | 6.28 |  | 2.63 |  | 13.4
12 | CN(C(=O)C12C3C4C1C1C2C3C41C(N)=O)C(C)(C)C (configuration not stated) | > 100 µM | > 100 µM | > 100 |  |  | > 100 | > 100 µM | > 100 µM |  |  |  |  |  |  |  |  |  |  |  | 
13 | CC(=O)Nc1ccc(S(=O)(=O)N/N=C/CN2C(=O)c3ccccc3C2=O)cc1 | > 100 µM | > 100 µM | > 100 | > 100 µM | > 100 | > 100 | > 100 µM | > 100 µM |  |  |  |  |  |  |  |  |  |  |  | 
14 | CC1(C)C2CCC13C(=O)C1OC3(C2)C2C(=O)c3ccccc3C(=O)C12 (configuration not stated) | > 100 µM | > 100 µM | > 100 | > 100 µM | > 100 | > 100 | > 100 µM |  | > 100 |  | 97 | > 100 | > 100 |  |  | > 100 | > 100 | > 100 | 39.7 | > 100
15 | C[C@@]12CCC(=O)c3coc(c31)C(=O)c1cc3c(cc12)C(=O)C=CC3=O | > 1 µM and 30.3 µM | > 1 µM and 31.3 µM | > 23.2 | > 1 µM and 23.8 µM | > 100 | > 100 | > 1 µM and 29.7 µM | > 1 µM and 28.9 µM | > 1 | > 1 |  |  |  |  |  | > 1 | > 1 | > 1 | > 1 | > 1
16 | CC(CN(C)C)/C(=N\Nc1ccccc1)c1ccccc1 (configuration not stated) | 2.08 µM | 29.1 µM | 29.3 | 15.3 µM | 12 |  | 2.55 µM | 12.3 µM |  |  |  |  |  |  |  |  |  |  |  | 
17 | CCOC(=O)/C(C1=NCCN1)=C(\O)c1ccccc1 | > 100 µM | > 100 µM | > 100 | > 100 µM | > 100 | > 100 | > 100 µM | > 100 µM |  |  |  |  |  |  |  |  |  |  |  | 
18 | c1cncc(C2N3CCCCC3[C@@H]3c4[nH]c5ccccc5c4CCN23)c1 (some centres not stated) | > 100 µM |  | > 100 | > 100 µM | > 100 |  |  | > 100 µM |  |  |  |  |  |  |  |  |  |  |  | 
19 | CCCCCCCCCCCCCCCC(=O)OCC1OC(n2cc(F)c(=O)[nH]c2=O)C(N)C(O)C1O (configuration not stated) | 33.9 µM | 38.2 µM | 31.7 | 40.7 µM | 37.4 | 27.8 | 34 µM | 30 µM |  |  |  |  |  |  |  |  |  |  |  | 
20 | CC1=NN(C(=O)c2ccccc2O)C(=O)/C1=C/c1ccc(O)cc1 | > 100 µM | > 100 µM | > 100 | > 100 µM | > 100 | > 100 | > 94.6 µM | 5.06 µM |  |  |  |  |  |  | > 100 |  |  |  |  | 
21 | NCCCC[C@@H]1NC(=O)[C@H]2CCCN2C(=O)[C@H](Cc2ccccc2)CNC(=O)[C@H](Cc2ccccc2)NC1=O | > 37.5 µM | > 37.5 µM |  | > 37.5 µM | > 37.5 | > 37.5 | > 37.5 µM | > 37.5 µM | > 37.5 | > 37.5 |  | > 37.5 | > 37.5 | > 37.5 | > 37.5 | > 37.5 | > 37.5 | > 37.5 | > 37.5 | > 37.5

From PubChem BioAssay (NCI)
